Data as given in publication PMC4842925, “Aristolochic acid, a plant extract used in the treatment of pain and linked to Balkan endemic nephropathy, is a regulator of K2P channels” (British Journal of Pharmacology, 2016).
Where a chain is given by its changes, count along the chain named.

Tests used:
Assay in all cases: whole-cell patch clamp, tsA201 cells
Type in all cases: cell-based
hTRAAK (K2P4.1) = molecular target: T1, hTRAAK (K2P4.1) (Homo sapiens, UniProt Q9NYG8); details: authors: little effect; difference current between -40 and -80 mV; pH 7.4; 2.5 mM external K; room temperature
T1 construct: gene KCNK4; isoform 2 in pcDNA3.1, transiently expressed in tsA201 cells; homodimer
T1 sequence (Q9NYG8 1-419 isoform Q9NYG8-2): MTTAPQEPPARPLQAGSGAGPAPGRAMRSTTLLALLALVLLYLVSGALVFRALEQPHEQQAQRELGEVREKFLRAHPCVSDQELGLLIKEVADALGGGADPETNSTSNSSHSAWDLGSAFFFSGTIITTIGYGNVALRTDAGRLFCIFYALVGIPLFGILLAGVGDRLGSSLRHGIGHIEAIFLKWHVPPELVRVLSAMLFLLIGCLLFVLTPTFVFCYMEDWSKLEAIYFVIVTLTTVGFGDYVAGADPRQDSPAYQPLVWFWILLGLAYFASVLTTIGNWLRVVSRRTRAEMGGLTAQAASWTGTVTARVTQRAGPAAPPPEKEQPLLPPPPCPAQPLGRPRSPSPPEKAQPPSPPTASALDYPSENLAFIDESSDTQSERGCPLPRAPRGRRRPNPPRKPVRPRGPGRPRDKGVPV

hTASK-2 (K2P5.1) [1] = molecular target: T2, hTASK-2 (K2P5.1) (Homo sapiens, UniProt O95279); details: activation; no effect at 100 μM; pH 7.4; 2.5 mM external K; room temperature
T2 construct: gene KCNK5; full-length channel in pcDNA3.1, transiently expressed in tsA201 cells; functional dimer
T2 sequence (O95279 1-499): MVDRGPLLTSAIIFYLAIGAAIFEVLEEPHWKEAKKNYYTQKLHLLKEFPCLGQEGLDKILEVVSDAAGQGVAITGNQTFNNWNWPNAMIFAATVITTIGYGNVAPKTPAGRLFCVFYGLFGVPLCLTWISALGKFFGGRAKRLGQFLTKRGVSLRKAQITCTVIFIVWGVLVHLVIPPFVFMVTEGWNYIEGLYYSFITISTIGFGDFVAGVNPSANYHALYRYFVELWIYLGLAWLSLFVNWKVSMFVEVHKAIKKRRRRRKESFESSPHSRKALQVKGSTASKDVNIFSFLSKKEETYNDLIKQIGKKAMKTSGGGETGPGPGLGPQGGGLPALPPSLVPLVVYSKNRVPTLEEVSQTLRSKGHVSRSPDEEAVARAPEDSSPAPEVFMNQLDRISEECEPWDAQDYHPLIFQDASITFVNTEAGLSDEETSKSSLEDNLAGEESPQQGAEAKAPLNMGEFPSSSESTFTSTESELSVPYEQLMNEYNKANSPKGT

hTRESK (K2P18.1) [2] = molecular target: T3, hTRESK (K2P18.1) (Homo sapiens, UniProt Q7Z418, S252E/S264E)
T3 construct: gene KCNK18; full-length channel in pcDNA3.1, transiently expressed in tsA201 cells; homodimer
T3 sequence (Q7Z418 1-384 S252E/S264E): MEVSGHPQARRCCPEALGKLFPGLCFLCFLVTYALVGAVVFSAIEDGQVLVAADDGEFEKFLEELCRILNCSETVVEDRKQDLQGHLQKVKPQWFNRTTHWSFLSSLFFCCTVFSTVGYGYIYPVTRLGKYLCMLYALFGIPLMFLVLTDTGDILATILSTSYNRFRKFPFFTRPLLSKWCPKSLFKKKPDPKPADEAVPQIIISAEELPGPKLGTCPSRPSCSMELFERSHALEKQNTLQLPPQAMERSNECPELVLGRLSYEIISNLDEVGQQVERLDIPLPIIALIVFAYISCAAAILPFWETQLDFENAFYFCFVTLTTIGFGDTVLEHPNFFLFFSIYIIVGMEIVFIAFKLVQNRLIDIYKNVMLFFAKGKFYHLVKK

hTRESK (K2P18.1) [3] = molecular target: T4, hTRESK (K2P18.1) (Homo sapiens, UniProt Q7Z418, S252A/S264A)
T4 construct: gene KCNK18; full-length channel in pcDNA3.1, transiently expressed in tsA201 cells; homodimer
T4 sequence (Q7Z418 1-384 S252A/S264A): T3 sequence (Q7Z418 1-384 S252E/S264E) with E252A, E264A

hTREK-2 (K2P10.1) = molecular target: T5, hTREK-2 (K2P10.1) (Homo sapiens, UniProt P57789); details: activation; difference current between -40 and -80 mV; pH 7.4; 2.5 mM external K; room temperature
T5 construct: gene KCNK10; full-length channel in pcDNA3.1, transiently expressed in tsA201 cells; homodimer
T5 sequence (P57789 1-538): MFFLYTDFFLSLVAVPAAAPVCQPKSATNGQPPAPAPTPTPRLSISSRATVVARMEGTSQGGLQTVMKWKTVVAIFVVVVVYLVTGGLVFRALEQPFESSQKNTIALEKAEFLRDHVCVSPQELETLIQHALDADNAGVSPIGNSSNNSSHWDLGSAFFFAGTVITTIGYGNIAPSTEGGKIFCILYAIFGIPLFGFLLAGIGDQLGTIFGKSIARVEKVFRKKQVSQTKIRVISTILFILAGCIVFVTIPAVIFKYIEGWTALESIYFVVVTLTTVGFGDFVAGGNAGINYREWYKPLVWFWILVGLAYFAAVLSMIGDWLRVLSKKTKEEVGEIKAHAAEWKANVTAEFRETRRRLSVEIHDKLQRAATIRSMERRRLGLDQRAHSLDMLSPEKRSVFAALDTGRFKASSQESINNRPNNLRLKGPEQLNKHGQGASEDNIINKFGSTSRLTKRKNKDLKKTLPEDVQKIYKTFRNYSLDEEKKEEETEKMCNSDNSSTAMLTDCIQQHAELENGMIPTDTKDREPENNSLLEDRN

hTRESK (K2P18.1) [4] = molecular target: T6, hTRESK (K2P18.1) (Homo sapiens, UniProt Q7Z418)
T6 construct: gene KCNK18; full-length channel in pcDNA3.1, transiently expressed in tsA201 cells; homodimer
T6 sequence (Q7Z418 1-384): T3 sequence (Q7Z418 1-384 S252E/S264E) with E252S, E264S

hTRESK (K2P18.1) [5] = molecular target: T7, hTRESK (K2P18.1) (Homo sapiens, UniProt Q7Z418, F145A/F352A)
T7 construct: gene KCNK18; full-length channel in pcDNA3.1, transiently expressed in tsA201 cells; homodimer
T7 sequence (Q7Z418 1-384 F145A/F352A): T3 sequence (Q7Z418 1-384 S252E/S264E) with F145A, E252S, E264S, F352A

hTASK-2 (K2P5.1) [6] = molecular target: T8, hTASK-2 (K2P5.1) (Homo sapiens, UniProt O95279, T108P)
T8 construct: gene KCNK5; full-length channel in pcDNA3.1, transiently expressed in tsA201 cells; functional dimer
T8 sequence (O95279 1-499 T108P): T2 sequence (O95279 1-499) with T108P

hTASK-2 (K2P5.1) [7] = molecular target: T2, hTASK-2 (K2P5.1); details: activation; pH 7.4; 2.5 mM external K; room temperature

SMILES	% enhancement at 100 μM (hTRAAK (K2P4.1))	% enhancement at 300 μM (hTASK-2 (K2P5.1) [1])	inhibition at 100 µM (hTRESK (K2P18.1) [2])	inhibition at 100 µM (hTRESK (K2P18.1) [3])	% enhancement at 100 μM (hTREK-2 (K2P10.1))	IC50 (hTRESK (K2P18.1) [4])	inhibition at 100 µM (hTRESK (K2P18.1) [5])	inhibition at 100 µM (hTASK-2 (K2P5.1) [6])	% enhancement at 100 μM (hTASK-2 (K2P5.1) [7])
COc1cccc2c1cc([N+](=O)[O-])c1c(C(=O)O)cc3c(c12)OCO3 [Aristolochic acid I]	8 ± 5%	21 ± 13%	73 ± 5%	80 ± 2%	44 ± 11%	13 ± 2 µM	0%	–	–
O=C(O)c1ccccc1Nc1cccc(C(F)(F)F)c1 [Flufenamic acid]	–	–	–	–	–	–	–	15 ± 14%	80 ± 31%
